From patent US8952043B2, “Benzoxepin PI3K inhibitor compounds and methods of use” (Genentech, Inc., priority 2009, dated 2015)

How the values were obtained:
p110 alpha PI3K = biological target: T1, p110 alpha PI3K (Homo sapiens, UniProt P42336); test: p110α (alpha) PI3K binding assay (fluorescence polarization); settings: read-out: IC50 (inhibition of PI3K alpha, p110 alpha)
T1 construct: purchased Upstate Cell Signaling Solutions, Charlottesville, Va
Experimental: Determination of the PI3 kinase activity of a Formula I compound is possible by a number of direct and indirect detection methods. Certain exemplary compounds described herein were assayed for their p110α (alpha), and other isoform, PI3K binding activity (Example 601) and in vitro activity against tumor cells (Example 602).
Binding Assays: Initial polarization experiments were performed on an Analyst HT 96-384 (Molecular Devices Corp, Sunnyvale, Calif.). […] After an incubation time of 30 minutes at room temperature, the reactions were stopped by the addition of GRP-1 and PIP3-TAMRA probe (Echelon-Inc., Salt Lake City, Utah.) 100 nM and 5 nM final concentrations respectively. Read with standard cut-off filters for the rhodamine fluorophore (λex=530 nm; λem=590 nm) in 384-well black low volume Proxiplates (PerkinElmer, Wellesley, Mass.) Fluorescence polarization values were plotted as a function of the protein concentration, and the EC50 values were obtained by fitting the data to a 4-parameter equation using KaleidaGraph software (Synergy software, Reading, Pa.). This experiment also establishes the appropriate protein concentration to use in subsequent competition experiments with inhibitors.
Inhibitor IC50 values were determined by addition of the 0.04 mg/mL p110 alpha PI3K (final concentration) combined with PIP2 ([…] final concentration) to wells containing 1:3 serial dilutions of the antagonists in a final concentration of […] ATP (Cell Signaling Technology, Inc., Danvers, Mass.) in the polarization buffer. After an incubation time of 30 minutes at room temperature, the reactions were stopped by the addition of GRP-1 and PIP3-TAMRA probe (Echelon-Inc., Salt Lake City, Utah.) 100 nM and 5 nM final concentrations respectively. Read with standard cut-off filters for the rhodamine fluorophore (λex=530 nm; λem=590 nm) in 384-well black low volume proxi plates (PerkinElmer, Wellesley, Mass.) Fluorescence polarization values were plotted as a function of the antagonist concentration, and the IC50 values were obtained by fitting the data to a 4-parameter equation in Assay Explorer software (MDL, San Ramon, Calif.).
Alternatively, inhibition of PI3K was determined in a radiometric assay using purified, recombinant enzyme and ATP at a concentration of 1 uM. The Formula I compound was serially diluted in 100% DMSO. The kinase reaction was incubated for 1 hr at room temperature, and the reaction was terminated by the addition of PBS. IC50 values were subsequently determined using sigmoidal dose-response curve fit (variable slope).

AU565 = test: CellTiter-Glo cell proliferation assay, AU565; assay type: cell-based; settings: Homo sapiens, Breast, mutation status WT
Experimental: (§1) The in vitro potency of Formula I exemplary compounds was measured by the cell proliferation assay, CellTiter-Glo® Luminescent Cell Viability Assay, commercially available from Promega Corp., Madison, Wis. (Example 602). This homogeneous assay method is based on the recombinant expression of Coleoptera luciferase (U.S. Pat. Nos. 5,583,024; 5,674,713; 5,700,670) and determines the number of viable cells in culture based on quantitation of the ATP present, an indicator of metabolically active cells (Crouch et al (1993) J. Immunol. Meth. 160:81-88; U.S. Pat. No. 6,602,677). The CellTiter-Glo® Assay was conducted in 96 or 384 well format, making it amenable to automated high-throughput screening (HTS) (Cree et al (1995) AntiCancer Drugs 6:398-404). The homogeneous assay procedure involves adding the single reagent (CellTiter-Glo® Reagent) directly to cells cultured in serum-supplemented medium. Cell washing, removal of medium and multiple pipetting steps are not required. The system detects as few as 15 cells/well in a 384-well format in 10 minutes after adding reagent and mixing.
(§2) Efficacy of Formula I compounds were measured by a cell proliferation assay employing the following protocol (Promega Corp. Technical Bulletin TB288; Mendoza et al (2002) Cancer Res. 62:5485-5488):
(§3) 1. An aliquot of 100 μl of cell culture containing about 10^4 cells (PC3, Detroit562, or MDAMB361.1) in medium was deposited in each well of a 384-well, opaque-walled plate.
(§4) 2. Control wells were prepared containing medium and without cells.
(§5) 3. The compound was added to the experimental wells and incubated for 3-5 days.
(§6) 4. The plates were equilibrated to room temperature for approximately 30 minutes.
(§7) 5. A volume of CellTiter-Glo Reagent equal to the volume of cell culture medium present in each well was added.
(§8) 6. The contents were mixed for 2 minutes on an orbital shaker to induce cell lysis.
(§9) 7. The plate was incubated at room temperature for 10 minutes to stabilize the luminescence signal.
(§10) 8. Luminescence was recorded and reported in graphs as RLU=relative luminescence units.
(§11) Alternatively, cells were seeded at optimal density in a 96 well plate and incubated for 4 days in the presence of test compound. Alamar Blue™ was subsequently added to the assay medium, and cells were incubated for 6 hr before reading at 544 nm excitation, 590 nm emission. EC50 values were calculated using a sigmoidal dose response curve fit. […] It is commonly used as a measure of drug potency.
(§12) The anti-proliferative effects of Formula I exemplary compounds were measured by the CellTiter-Glo® Assay against various tumor cell lines, including the following: […]

EVSA-T = test: CellTiter-Glo cell proliferation assay, EVSA-T; assay type: cell-based; settings: Homo sapiens, Breast, mutation status PTEN
Experimental: as §1, §2, §3, §4, §5, §6, §7, §8, §9, §10, §11, §12

MDA-MB-361.1 = test: CellTiter-Glo cell proliferation assay, MDA-MB-361.1; assay type: cell-based; settings: Breast, mutation status PI3K
Experimental: as §1, §2, §3, §4, §5, §6, §7, §8, §9, §10, §11, §12

T1 sequence (P42336 whole entry): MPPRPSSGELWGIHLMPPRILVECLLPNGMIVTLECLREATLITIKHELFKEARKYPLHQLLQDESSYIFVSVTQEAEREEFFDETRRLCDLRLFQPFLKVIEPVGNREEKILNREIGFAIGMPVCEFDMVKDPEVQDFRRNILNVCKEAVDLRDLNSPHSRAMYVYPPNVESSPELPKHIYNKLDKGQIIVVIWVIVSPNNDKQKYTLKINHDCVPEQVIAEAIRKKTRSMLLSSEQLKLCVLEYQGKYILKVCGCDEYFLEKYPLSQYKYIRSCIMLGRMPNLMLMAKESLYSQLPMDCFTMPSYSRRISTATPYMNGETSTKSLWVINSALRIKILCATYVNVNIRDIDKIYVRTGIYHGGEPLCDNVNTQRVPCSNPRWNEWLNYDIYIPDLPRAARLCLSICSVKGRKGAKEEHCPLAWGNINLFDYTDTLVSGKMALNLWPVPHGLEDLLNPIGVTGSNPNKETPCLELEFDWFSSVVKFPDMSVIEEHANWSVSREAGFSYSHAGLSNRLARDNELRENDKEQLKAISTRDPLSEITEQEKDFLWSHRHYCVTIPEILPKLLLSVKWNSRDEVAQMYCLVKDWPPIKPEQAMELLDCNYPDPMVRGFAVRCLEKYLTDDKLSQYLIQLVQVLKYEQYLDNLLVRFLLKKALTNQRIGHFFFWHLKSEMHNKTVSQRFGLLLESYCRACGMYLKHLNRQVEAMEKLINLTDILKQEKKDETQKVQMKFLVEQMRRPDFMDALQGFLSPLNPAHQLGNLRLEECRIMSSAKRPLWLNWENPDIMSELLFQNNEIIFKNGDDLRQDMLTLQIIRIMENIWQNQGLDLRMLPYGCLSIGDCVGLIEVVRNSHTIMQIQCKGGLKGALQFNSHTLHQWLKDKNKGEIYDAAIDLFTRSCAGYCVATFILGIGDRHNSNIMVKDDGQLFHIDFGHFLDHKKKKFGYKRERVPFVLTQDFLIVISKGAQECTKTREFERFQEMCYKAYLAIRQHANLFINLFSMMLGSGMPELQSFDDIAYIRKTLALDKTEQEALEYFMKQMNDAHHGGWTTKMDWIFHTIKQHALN
T1 sequence (P27986 whole entry partner): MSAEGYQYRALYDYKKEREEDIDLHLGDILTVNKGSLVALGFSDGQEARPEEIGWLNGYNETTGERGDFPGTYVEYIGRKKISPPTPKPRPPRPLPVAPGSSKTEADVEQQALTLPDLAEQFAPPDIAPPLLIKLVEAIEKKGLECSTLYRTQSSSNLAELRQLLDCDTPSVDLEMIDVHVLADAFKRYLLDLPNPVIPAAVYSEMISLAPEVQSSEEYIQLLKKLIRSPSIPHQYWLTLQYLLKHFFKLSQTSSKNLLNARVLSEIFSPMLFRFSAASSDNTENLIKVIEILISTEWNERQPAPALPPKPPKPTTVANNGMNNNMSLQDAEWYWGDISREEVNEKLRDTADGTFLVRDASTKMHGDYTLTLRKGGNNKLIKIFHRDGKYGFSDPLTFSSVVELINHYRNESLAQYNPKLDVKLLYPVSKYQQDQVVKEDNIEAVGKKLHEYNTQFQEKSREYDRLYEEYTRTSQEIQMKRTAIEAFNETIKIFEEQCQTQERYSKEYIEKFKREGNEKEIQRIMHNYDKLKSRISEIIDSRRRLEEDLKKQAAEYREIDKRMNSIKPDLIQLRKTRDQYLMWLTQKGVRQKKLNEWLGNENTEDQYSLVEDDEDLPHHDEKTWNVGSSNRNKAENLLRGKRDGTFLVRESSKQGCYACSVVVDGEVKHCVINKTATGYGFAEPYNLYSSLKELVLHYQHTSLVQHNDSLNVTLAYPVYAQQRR

| Structure (SMILES) | IC50 (p110 alpha PI3K) | EC50 (MDA-MB-361.1) | EC50 (AU565) | EC50 (EVSA-T) |
| --- | --- | --- | --- | --- |
| O=C(c1nc2c(s1)CCOc1cc(-c3cn[nH]c3)ccc1-2)N1CCC[C@@H]1CO [compound 101, ((R)-2-Hydroxymethyl-pyrrolidin-1-yl)-[8-(1H-pyrazol-4-yl)-4,5-dihydro-6-oxa-3-thia-1-aza-benzo[e]azulen-2-yl]-methanone] | 31 nM |  |  |  |
| CC(C)N(C)C(=O)c1nc2c(s1)CCOc1cc(-c3cn[nH]c3)ccc1-2 [compound 102, 8-(1H-Pyrazol-4-yl)-4,5-dihydro-6-oxa-3-thia-1-aza-benzo[e]azulene-2-carboxylic acid isopropyl-methyl-amide] | 5.1 nM |  |  |  |
| O=C(NCc1ccc2c(c1)OCCc1sc(-c3ncnn3CC(F)(F)F)nc1-2)c1cn[nH]c1 [compound 106, 1H-Pyrazole-4-carboxylic acid {2-[2-(2,2,2-trifluoro-ethyl)-2H-[1,2,4]triazol-3-yl]-4,5-dihydro-6-oxa-3-thia-1-aza-benzo[e]azulen-8-ylmethyl}-amide] | 5.7 nM |  |  |  |

Compounds with a lower IC50 (p110 alpha PI3K), results first:

| IC50 (p110 alpha PI3K) | EC50 (MDA-MB-361.1) | Structure (SMILES) | EC50 (AU565) | EC50 (EVSA-T) |
| --- | --- | --- | --- | --- |
| 1.8 nM |  | CC(C)N(CCO)C(=O)c1nc2c(s1)CCOc1cc(-c3cn[nH]c3)ccc1-2 [compound 103, 8-(1H-Pyrazol-4-yl)-4,5-dihydro-6-oxa-3-thia-1-aza-benzo[e]azulene-2-carboxylic acid (2-hydroxy-ethyl)-isopropyl-amide] |  |  |
| 1.3 nM |  | O=S1(=O)CCN(CCNc2ccc3c(n2)-c2sc(-c4ncnn4-c4ccc(F)cc4F)cc2CCO3)CC1 [compound 109, {2-[2-(2,4-Difluoro-phenyl)-2H-[1,2,4]triazol-3-yl]-4,5-dihydro-6-oxa-1-thia-10-aza-benzo[e]azulen-9-yl}-[2-(1,1-dioxo-1S-thiomorpholin-4-yl)-ethyl]-amine] |  |  |
| 0.05 nM | 60 nM | CNC(=O)c1ccc2c(c1)OCCc1cc(-c3nc(N)nn3-c3ccc(F)cc3F)sc1-2 [compound 127, 2-(3-amino-1-(2,4-difluorophenyl)-1H-1,2,4-triazol-5-yl)-N-methyl-4,5-dihydrobenzo[b]thieno[2,3-d]oxepine-8-carboxamide] | 37 nM | 147 nM |
